Reference: patent US12692270B2, “Crystal form of casein kinase 1ϵ inhibitor and preparation method and use thereof” (HANGZHOU HEALZEN THERAPEUTICS CO., LTD., priority 2020, dated 2026)
Like-named read-outs stand apart in the source and are kept apart here.

Columns and labels:
[1] = Equilibrium solubility of crystal forms in purified water (HPLC); type: physicochemical; conditions: for Water solubility: saturated (equilibrium) solubility in purified water, room temperature, HPLC, methanesulfonate; for Solubility in water (in words): summary of Table 8
Text: Preparation of a standard curve: Appropriate amounts of a series of compounds were accurately weighed, placed in volumetric flasks, and dissolved and diluted with an appropriate amount of acetonitrile to a certain scale to serve as stock solutions. Appropriate amounts of the stock solutions were accurately weighed, placed in volumetric flasks, diluted with a mobile phase to a certain scale, and uniformly shaken to obtain a series of high-concentration standard solutions and low-concentration standard solutions. The standard solutions were separately sampled in the sequence from low concentration to high concentration, and peak areas were recorded. Linear regression was conducted with the compound concentration as the abscissa and the peak area as the ordinate to obtain a linear regression equation of a compound, namely, a standard curve of the solubility of the compound as shown in the formula (I).
Determination of equilibrium solubility: An excess amount of a compound was placed in a 10 mL plugged EP tube, 2 mL of purified water was added, and the compound was subjected to ultrasonic treatment at room temperature for 15 min, followed by standing for 20 min. The above operations were repeated for 4 times, centrifugation was conducted at 3,000 r/min for 10 min, and a supernatant was taken (after the supernatant was properly diluted with a solvent) and filtered through a microporous filtration membrane. A filtrate was taken for HPLC detection, and the peak area was recorded and substituted into the standard curve to calculate the saturated solubility of each compound in water.

[2] = Pharmacokinetic test in rats in vivo, plasma concentration after oral administration; conditions: for Cmax: 10 mg/kg, intragastric, suspension in sodium carboxymethyl cellulose solution
Method: (§1) Experimental method: SD rats were used as experimental animals and intragastrically administrated with a milky white suspension prepared from a sodium carboxymethyl cellulose solution at a dose of 10 mg/kg. After the intragastric administration, blood was collected at the time points of 0.17, 0.33, 0.5, 1, 1.5, 2, 4, 6, 8, 12 and 24 h. 0.3 ml of whole blood was taken and subjected to centrifugation, and then 0.1 ml of plasma was taken and analyzed by LC-MS.

[3] = Pharmacokinetic test in dogs in vivo, plasma concentration after oral administration; conditions: Beagles
Method: as §1, with “Beagles” for “SD rats”, “0,” for “0.17, 0.33,”, “1,” for “1, 1.5,”, “2, 3,” for “2,”, “8” for “8, 12”

[4] = SD, rat, plasma, po, mean n=3, read-out: Cmax
[5] = SD rats, mean n=3, methanesulfonate

| Compound | Water solubility [1] [µg/mL] | Solubility in water (in words) [1] | further results |
| --- | --- | --- | --- |
| COc1ccc(-c2nn([C@@H](C)c3nc4cccc(Cl)c4c(=O)n3-c3ccccc3)c3ncnc(N)c23)c(F)c1F.CS(=O)(=O)O [Crystal form D, (S)-2-(1-(4-amino-3-(2,3-difluoro-4-methoxyphenyl)-1H-pyrazolo[3,4-d]pyrimidin-1-yl)ethyl)-5-chloro-3-phenylquinazoline-4(3H)one methanesulfonate] | 4.60 | soluble in water | Cmax [2, 5]: 1866.0 ng/mL |
| COc1ccc(-c2nn([C@@H](C)c3nc4cccc(Cl)c4c(=O)n3-c3ccccc3)c3ncnc(N)c23)c(F)c1F [(S)-2-(1-(4-amino-3-(2,3-difluoro-4-methoxyphenyl)-1H-pyrazolo[3,4-d]pyrimidin-1-yl)ethyl)-5-chloro-3-phenylquinazoline-4(3H)-one] |  |  | Cmax [2, 4]: 456 ng/mL |
| COc1ccc(-c2nn([C@@H](C)c3nc4cccc(Cl)c4c(=O)n3-c3ccccc3)c3ncnc(N)c23)c(F)c1F.CS(=O)(=O)O [compound as shown in the formula (I), (S)-2-(1-(4-amino-3-(2,3-difluoro-4-methoxyphenyl)-1H-pyrazolo[3,4-d]pyrimidin-1-yl)ethyl)-5-chloro-3-phenylquinazoline-4(3H)one methanesulfonate] |  |  | Pharmacokinetic properties compared with the free alkali (in words) ([3]; oral 10 mg/kg, crystal form F investigated): significantly improved; Pharmacokinetic properties compared with the free alkali (in words) ([2]; SD rats, oral 10 mg/kg, crystal forms C, D and F investigated): significantly improved |
| COc1ccc(-c2nn([C@@H](C)c3nc4cccc(Cl)c4c(=O)n3-c3ccccc3)c3ncnc(N)c23)c(F)c1F.CS(=O)(=O)O [Crystal form A, (S)-2-(1-(4-amino-3-(2,3-difluoro-4-methoxyphenyl)-1H-pyrazolo[3,4-d]pyrimidin-1-yl)ethyl)-5-chloro-3-phenylquinazoline-4(3H)one methanesulfonate] | <1.0 | soluble in water |  |
| COc1ccc(-c2nn([C@@H](C)c3nc4cccc(Cl)c4c(=O)n3-c3ccccc3)c3ncnc(N)c23)c(F)c1F.CS(=O)(=O)O [Crystal form B, (S)-2-(1-(4-amino-3-(2,3-difluoro-4-methoxyphenyl)-1H-pyrazolo[3,4-d]pyrimidin-1-yl)ethyl)-5-chloro-3-phenylquinazoline-4(3H)one methanesulfonate] | 2.50 | soluble in water |  |
| COc1ccc(-c2nn([C@@H](C)c3nc4cccc(Cl)c4c(=O)n3-c3ccccc3)c3ncnc(N)c23)c(F)c1F.CS(=O)(=O)O [Crystal form F, (S)-2-(1-(4-amino-3-(2,3-difluoro-4-methoxyphenyl)-1H-pyrazolo[3,4-d]pyrimidin-1-yl)ethyl)-5-chloro-3-phenylquinazoline-4(3H)one methanesulfonate] | 24.80 | soluble in water | AUC ([3]; beagle, dog, plasma, po, intragastric, 10 mg/kg, suspension in sodium carboxymethyl cellulose solution, mean n=2, NA = value lower than the lower detection limit): 3820 ng·h/mL; Cmax [2, 5]: 2855.31 ng/mL |

Further lines, with some results ahead:

| Water solubility [1] [µg/mL] | Solubility in water (in words) [1] | Compound | further results |
| --- | --- | --- | --- |
| 3.84 | soluble in water | COc1ccc(-c2nn([C@@H](C)c3nc4cccc(Cl)c4c(=O)n3-c3ccccc3)c3ncnc(N)c23)c(F)c1F.CS(=O)(=O)O [Crystal form C, (S)-2-(1-(4-amino-3-(2,3-difluoro-4-methoxyphenyl)-1H-pyrazolo[3,4-d]pyrimidin-1-yl)ethyl)-5-chloro-3-phenylquinazoline-4(3H)one methanesulfonate] | Cmax [2, 4]: 1640 ng/mL |
| 1.25 | soluble in water | COc1ccc(-c2nn([C@@H](C)c3nc4cccc(Cl)c4c(=O)n3-c3ccccc3)c3ncnc(N)c23)c(F)c1F.CS(=O)(=O)O [Crystal form E, (S)-2-(1-(4-amino-3-(2,3-difluoro-4-methoxyphenyl)-1H-pyrazolo[3,4-d]pyrimidin-1-yl)ethyl)-5-chloro-3-phenylquinazoline-4(3H)one methanesulfonate] |  |
